Data taken from paper PMC6089974 (Nature Communications, 2018).

Biological target: T1, TmGalA (Thermotoga maritima, UniProt G4FEF4)
T1 construct: gene galA
Assay: time-dependent inactivation, dilution assay, residual activity with 4-nitrophenyl α-D-galactopyranoside
Type: biochemical
Conditions: covalent, irreversible inactivator; Ki from kobs versus concentration (kinact/Ki analysis); 50 mM HEPES pH 7.4, 37 °C, BSA 1 mg/mL; read-out: Km (μM) / Ki

T1 sequence (G4FEF4 whole entry): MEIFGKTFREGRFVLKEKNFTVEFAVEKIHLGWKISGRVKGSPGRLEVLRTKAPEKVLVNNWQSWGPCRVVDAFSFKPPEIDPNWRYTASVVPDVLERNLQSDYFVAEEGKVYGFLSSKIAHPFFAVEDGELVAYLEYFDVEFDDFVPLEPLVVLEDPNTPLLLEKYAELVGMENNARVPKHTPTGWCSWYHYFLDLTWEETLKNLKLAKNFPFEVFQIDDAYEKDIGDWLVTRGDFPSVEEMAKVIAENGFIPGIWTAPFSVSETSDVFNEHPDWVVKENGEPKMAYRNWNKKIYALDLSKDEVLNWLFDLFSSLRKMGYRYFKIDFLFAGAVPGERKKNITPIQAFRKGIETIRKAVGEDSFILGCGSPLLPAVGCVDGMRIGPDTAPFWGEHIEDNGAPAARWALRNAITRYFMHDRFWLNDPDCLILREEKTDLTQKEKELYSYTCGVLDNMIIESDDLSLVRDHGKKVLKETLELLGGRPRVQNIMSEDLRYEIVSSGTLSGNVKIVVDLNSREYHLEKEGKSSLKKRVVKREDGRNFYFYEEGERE

## OC[C@@H]1[C@H](O)[C@H](O)[C@@H](O)[C@H]2O[C@@H]12 [compound 8, cyclophellitol analog 8]
  KI (inactivation): 161 ± 18 µM
